# In BindingDB's records for PubMed 2905002 (Schering-Plough, 1988):
# Biological target: 5-hydroxytryptamine receptor 2A (Rattus norvegicus, UniProt P14842)
# Sequence (P14842 whole entry): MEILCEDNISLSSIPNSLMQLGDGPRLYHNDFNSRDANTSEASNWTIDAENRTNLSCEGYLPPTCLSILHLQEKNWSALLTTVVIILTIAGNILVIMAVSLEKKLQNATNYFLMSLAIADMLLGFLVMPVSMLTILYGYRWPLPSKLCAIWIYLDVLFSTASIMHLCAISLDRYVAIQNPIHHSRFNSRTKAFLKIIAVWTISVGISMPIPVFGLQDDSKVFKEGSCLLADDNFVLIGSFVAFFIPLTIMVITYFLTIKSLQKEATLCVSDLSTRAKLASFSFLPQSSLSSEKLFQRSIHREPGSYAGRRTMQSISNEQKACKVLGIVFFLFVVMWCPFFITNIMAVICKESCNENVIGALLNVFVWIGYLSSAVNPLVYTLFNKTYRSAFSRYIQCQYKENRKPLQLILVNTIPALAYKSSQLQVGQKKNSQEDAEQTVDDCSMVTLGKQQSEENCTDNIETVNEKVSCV
row,SMILES,Ki [nM]
1,"CN1CCc2cc(Cl)c(O)cc2[C@@H](c2ccccc2)C1 [SCH 23390,R(+)]",13.1
2,CN1CCc2cc(Cl)c(O)cc2[C@H]2c3ccccc3CC[C@@H]21,321
